These results are taken from patent US20050004163A1, “3-(diarylmethylene)-8-azabicyclo[3.2.1]octane derivatives” (priority 2000, published 2005).

T1 sequence (P33535 whole entry): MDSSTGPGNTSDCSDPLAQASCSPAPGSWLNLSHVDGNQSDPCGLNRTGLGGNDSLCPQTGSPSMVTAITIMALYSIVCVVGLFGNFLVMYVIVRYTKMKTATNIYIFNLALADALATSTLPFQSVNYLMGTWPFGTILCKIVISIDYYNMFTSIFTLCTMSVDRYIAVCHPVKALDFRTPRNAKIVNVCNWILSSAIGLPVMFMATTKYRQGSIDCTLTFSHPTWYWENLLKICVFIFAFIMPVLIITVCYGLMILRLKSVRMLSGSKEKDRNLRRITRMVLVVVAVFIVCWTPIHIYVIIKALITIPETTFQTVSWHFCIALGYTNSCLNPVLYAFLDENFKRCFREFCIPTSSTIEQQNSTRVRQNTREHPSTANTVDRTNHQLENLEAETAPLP

The first assay addresses T1, μ-opioid receptor (Rattus norvegicus, UniProt P33535).
T1 construct: the forebrains are homogenized in Tris buffer in a Teflon®-glass homogenizer; from tissue; host or cells: forebrain of male Wistar rats (particulate membrane preparation)
The experiment in a line: Rat brain μ-opioid receptor binding assay ([3H]DAMGO). The settings on record: 10 nM solutions of the compounds, read-out: MOR binding Ki. Here is the method: Rat Brain μ-Opioid Receptor Binding Assay
Male, Wistar rats (150-250 g, VAF, Charles River, Kingston, N.Y.) are killed by cervical dislocation and their brains removed and placed immediately in ice cold Tris HCl buffer (50 mM, pH 7.4). The forebrains are separated from the remainder of the brain by a coronal transection, beginning dorsally at the colliculi and passing ventrally through the midbrain-pontine junction. After dissection, the forebrains are homogenized in Tris buffer in a Teflon®-glass homogenizer. The homogenate is diluted to a concentration of 1 g of forebrain tissue per 100 mL Tris buffer and centrifuged at 39,000×G for 10 min. The pellet is resuspended in the same volume of Tris buffer with several brief pulses from a Polytron homogenizer. This particulate preparation is used for the μ-opioid binding assays. […] The tubes and filters are rinsed three times with 4 mL of 10 mM HEPES (pH 7.4) and the radioactivity associated with the filter circles determined using Formula 989 scintillation fluid (New England Nuclear, Boston, Mass.) in a scintillation counter.
The data are used to calculate either the % inhibition compared to control binding (when only a single concentration of test compound is evaluated) or a Ki value (when a range of concentrations is tested).
% Inhibition is calculated as follows: [formula]
Ki value is calculated using the LIGAND (Munson, P. J. and Rodbard, D., Anal. Biochem. 107: 220-239, 1980) data analysis program.
Regarding `CCN(CC)C(=O)c1ccc(C=C2CC3CCC(C2)N3Cc2ccsc2)cc1` [Cpd 52], the inhibition constant Ki (commonly the dissociation constant of the complex between target and ligand, obtained from inhibition or displacement) was 6490 nM.
Still for that read-out and setting: with `CCCCN1C2CCC1CC(=Cc1ccc(C(=O)NCC)cc1)C2` [Cpd 53] the figure was 262 nM; with `CCNC(=O)c1ccc(C=C2CC3CCC(C2)N3Cc2ccncc2)cc1` [Cpd 58], 1180 nM; with `CCNC(=O)c1ccc(C=C2CC3CCC(C2)N3Cc2cccs2)cc1` [Cpd 61], 71.2 nM.
Still for that read-out and setting: with `CCNC(=O)c1ccc(C=C2CC3CCC(C2)N3CCc2ccccc2)cc1` [Cpd 62] the figure was 8.56 nM; with `CCNC(=O)c1ccc(C=C2CC3CCC(C2)N3Cc2ccc(Cl)s2)cc1` [Cpd 77], 356 nM.
On the same count and under the same terms, as for `CCNC(=O)c1ccc(C=C2CC3CCC(C2)N3Cc2sc3ccccc3c2C)cc1` [Cpd 78], the figure is 271 nM.
On to `CCNC(=O)c1ccc(C=C2CC3CCC(C2)N3CCc2ccccc2O)cc1` [Cpd 86], for which the inhibitory constant (Ki) was determined as 19.3 nM.
Same read-out and setting: as for `CCNC(=O)c1ccc(C(=C2CC3CCC(C2)N3Cc2ccc(C(=O)O)o2)c2cccc(C(=O)O)c2)cc1` [Cpd 87], the figure is 815 nM.
On the same count and under the same terms, with `CCNC(=O)c1ccc(C(=C2CC3CCC(C2)N3Cc2ccc(C(=O)O)o2)c2ccccc2)cc1` [Cpd 95] the figure was 421 nM.
The same measure, in the same setting: with `CCNC(=O)c1ccc(C(=C2CC3CCC(C2)N3Cc2ccco2)c2ccc(C(=O)O)cc2)cc1` [Cpd 96] the figure was 63.5 nM.
Take `CCNC(=O)c1ccc(C(=C2CC3CCC(C2)N3Cc2ccco2)c2ccc([N+](=O)[O-])cc2)cc1` [Cpd 123]: the Ki turned out to be 34.2 nM.

Still in this assay, the particulars now being: MOR binding Ki.
Compound `CCN(CC)C(=O)c1ccc(C(Br)=C2CC3CCC(C2)N3)cc1` [Cpd 49, 4-[(8-Aza-bicyclo[3.2.1]oct-3-ylidene)-bromo-methyl]-N,N-diethylbenzamide] showed an inhibitory constant (Ki) of 100000 nM.
The same measure, in the same setting: as for `CCNC(=O)c1ccc(C=C2CC3CCC(C2)N3CCc2ccccc2)cc1` [Cpd 50, N-Ethyl-4-(8-phenethyl-8-aza-bicyclo[3.2.1]oct-3-ylidenemethyl)-benzamide], the figure is 44.3 nM.
`CCNC(=O)c1ccc(C=C2CC3CCC(C2)N3Cc2ccc3c(c2)OCO3)cc1` [Cpd 54] displayed a Ki of 130 nM.
Regarding `CCNC(=O)c1ccc(C=C2CC3CCC(C2)N3CC=C(C)C)cc1` [Cpd 55], the inhibitory constant (Ki) amounted to 195 nM.
With `CCNC(=O)c1ccc(C=C2CC3CCC(C2)N3Cc2ccccn2)cc1` [Cpd 56], the Ki was 1500 nM.
As for `CCNC(=O)c1ccc(C=C2CC3CCC(C2)N3Cc2cccnc2)cc1` [Cpd 57], the affinity corresponds to a Ki of 1410 nM.
Still for that read-out and setting: as for `CCNC(=O)c1ccc(C=C2CC3CCC(C2)N3CC#Cc2ccccc2)cc1` [Cpd 59], the figure is 31.6 nM.
`CCNC(=O)c1ccc(C(=C2CC3CCC(C2)N3Cc2cccs2)c2cnc3ccccc3c2)cc1` [Cpd 64] yielded a Ki of 30.8 nM.
Compound `CCNC(=O)c1ccc(C(=C2CC3CCC(C2)N3Cc2ccc3c(c2)OCO3)c2cnc3ccccc3c2)cc1` [Cpd 65] gave a Ki of 42.6 nM.
Still for that read-out and setting: as for `CCNC(=O)c1ccc(C(=C2CC3CCC(C2)N3Cc2ccccn2)c2cnc3ccccc3c2)cc1` [Cpd 66], the figure is 142 nM; as for `CCNC(=O)c1ccc(C(=C2CC3CCC(C2)N3CC=C(C)C)c2cccc3cccnc23)cc1` [Cpd 67], 119 nM.
For the compound `CCNC(=O)c1ccc(C(=C2CC3CCC(C2)N3Cc2cccs2)c2cccc3cccnc23)cc1` [Cpd 68], the affinity, expressed as Ki, was 155 nM.
Still for that read-out and setting: as for `CCNC(=O)c1ccc(C(=C2CC3CCC(C2)N3Cc2ccc3c(c2)OCO3)c2cccc3cccnc23)cc1` [Cpd 69], the figure is 133 nM; as for `CCNC(=O)c1ccc(C(=C2CC3CCC(C2)N3Cc2ccccn2)c2cccc3cccnc23)cc1` [Cpd 70], 41.1 nM; as for `CCNC(=O)c1ccc(C(=C2CC3CCC(C2)N3Cc2ccc3ccccc3n2)c2cccnc2)cc1` [Cpd 71], 14.6 nM.
`CCNC(=O)c1ccc(C(=C2CC3CCC(C2)N3Cc2ccc3ccccc3n2)c2cccc(NC(C)=O)c2)cc1` [Cpd 72] yielded an inhibition constant (Ki) of 11.1 nM.
On to `CCNC(=O)c1ccc(C(=C2CC3CCC(C2)N3Cc2ccc3ccccc3n2)c2cccc(C(C)=O)c2)cc1` [Cpd 73], for which the Ki amounted to 35.9 nM.
`CCNC(=O)c1ccc(C(=C2CC3CCC(C2)N3Cc2csc([N+](=O)[O-])c2)c2cccnc2)cc1` [Cpd 74] gave an inhibitory constant (Ki) of 37.5 nM.
The same measure, in the same setting: with `CCNC(=O)c1ccc(C(=C2CC3CCC(C2)N3Cc2csc([N+](=O)[O-])c2)c2cccc(C(C)=O)c2)cc1` [Cpd 76] the figure was 184 nM; with `CCNC(=O)c1ccc(C(=C2CC3CCC(C2)N3Cc2ccco2)c2cccc(C(=O)O)c2)cc1` [Cpd 80, 3-[(4-Ethylcarbamoyl-phenyl)-(8-furan-2-ylmethyl-8-aza-bicyclo[3.2.1]oct-3-ylidene)-methyl]-benzoic acid], 119 nM; with `CCNC(=O)c1ccc(C(=C2CC3CCC(C2)N3Cc2ccccn2)c2cccc(C(=O)O)c2)cc1` [Cpd 82], 375 nM.
Consider `CCNC(=O)c1ccc(C(=C2CC3CCC(C2)N3CCc2ccccc2)c2cccc(C(=O)O)c2)cc1` [Cpd 83], for which the Ki was determined as 17.2 nM.
`CCNC(=O)c1ccc(C(=C2CC3CCC(C2)N3Cc2ccc(NC(C)=O)cc2)c2cccc(C(=O)O)c2)cc1` [Cpd 84]: the Ki amounted to 5660 nM.
As to `CCNC(=O)c1ccc(C(=C2CC3CCC(C2)N3Cc2ccc3ccccc3n2)c2cccc(C(=O)O)c2)cc1` [Cpd 85], the inhibition constant (Ki) was determined as 537 nM.
On the same count and under the same terms, with `CCN(CC)C(=O)c1ccc(C(Br)=C2CC3CCC(C2)N3CCc2ccccc2)cc1` [Cpd 89, 4-[Bromo-(8-phenethyl-8-azabicyclo[3.2.1]oct-3-ylidene)-methyl]-N,N-diethylbenzamide] the figure was 1010 nM; with `CCNC(=O)c1ccc(C(=C2CC3CCC(C2)N3Cc2nnn[nH]2)c2ccccc2)cc1` [Cpd 90, N-Ethyl-4-{phenyl-[8-(1H-tetrazol-5-ylmethyl)-8-aza-bicyclo[3.2.1]oct-3-ylidene]-methyl}-benzamide], 406 nM; with `CCNC(=O)c1ccc(C(=C2CC3CCC(C2)N3CCN2CCN(C(=O)OC)CC2)c2ccccc2)cc1` [Cpd 91, 4-(2-{3-[(4-Ethylcarbamoylphenyl)-phenylmethylene]-8-azabicyclo[3.2.1]oct-8-yl}-ethyl)piperazine-1-carboxylic acid methyl ester], 175 nM.
The same measure, in the same setting: with `CCNC(=O)c1ccc(C(=C2CC3CCC(C2)N3Cc2cccc(C(=O)O)c2)c2ccccc2)cc1` [Cpd 93] the figure was 280 nM; with `CCNC(=O)c1ccc(C(=C2CC3CCC(C2)N3Cc2ccc(C(=O)O)cc2)c2ccccc2)cc1` [Cpd 94], 322 nM; with `CCNC(=O)c1ccc(C(=C2CC3CCC(C2)N3Cc2ccoc2)c2ccc(C(=O)O)cc2)cc1` [Cpd 97], 11.9 nM.
The same measure, in the same setting: with `CCNC(=O)c1ccc(C(=C2CC3CCC(C2)N3Cc2ccccn2)c2ccc(C(=O)O)cc2)cc1` [Cpd 98] the figure was 203 nM; with `CCNC(=O)c1ccc(C(=C2CC3CCC(C2)N3CCc2ccccc2)c2ccc(C(=O)O)cc2)cc1` [Cpd 99], 5290 nM; with `CCNC(=O)c1ccc(C(=C2CC3CCC(C2)N3Cc2ccc3ccccc3n2)c2ccc(C(=O)O)cc2)cc1` [Cpd 100], 147 nM.
In the case of `CCNC(=O)c1ccc(C(=C2CC3CCC(C2)N3Cc2ccc3ccccc3n2)c2cncnc2)cc1` [Cpd 101], the affinity corresponds to a Ki of 113 nM.
Same read-out and setting: as for `CCNC(=O)c1ccc(C(=C2CC3CCC(C2)N3Cc2nccs2)c2cccc(C(=O)O)c2)cc1` [Cpd 102], the figure is 1320 nM.
Compound `CNC(=O)c1ccc(C=C2CC3CCC(C2)N3CC2CC2)cc1` [Cpd 105] yielded a Ki of 5620 nM.
On the same count and under the same terms, as for `CCNC(=O)c1ccc(C=C2CC3CCC(C2)N3CCC(C#N)(c2ccccc2)c2ccccc2)cc1` [Cpd 106, 4-[8-(3-Cyano-3,3-diphenylpropyl)-8-aza-bicyclo[3.2.1]oct-3-ylidenemethyl]-N-ethyl-benzamide], the figure is 53.6 nM; as for `CCNC(=O)c1ccc(C(=C2CC3CCC(C2)N3Cc2ccco2)c2cc(N)cc(C(=O)O)c2)cc1` [Cpd 108], 10000 nM.
Still for that read-out and setting: with `CCNC(=O)c1ccc(C(=C2CC3CCC(C2)N3Cc2ccoc2)c2cc(N)cc(C(=O)O)c2)cc1` [Cpd 110] the figure was 9140 nM.
With `CCNC(=O)c1ccc(C(=C2CC3CCC(C2)N3Cc2ccccn2)c2cc(N)cc(C(=O)O)c2)cc1` [Cpd 112], the affinity, expressed as Ki, was 10000 nM.
The same measure, in the same setting: as for `CCNC(=O)c1ccc(/C(=C2\C[C@H]3CC[C@@H](C2)N3Cc2ccccn2)c2ccc(C(=O)N(C)C)cc2)cc1` [Cpd 113, N-Ethyl-4-[N′,N′-dimethylbenzamide-(8-pyridin-2-ylmethyl-8-aza-bicyclo[3.2.1]oct-3-ylidene)-methyl]-benzamide], the figure is 36.6 nM.
Still for that read-out and setting: with `CCNC(=O)c1ccc(C(=C2CC3CCC(C2)N3CC=C(C)C)c2cc(N)cc(C(=O)O)c2)cc1` [Cpd 114] the figure was 4830 nM; with `CCNC(=O)c1ccc(C(=C2CC3CCC(C2)N3CCc2ccccc2)c2cc(N)cc(C(=O)O)c2)cc1` [Cpd 116], 1510 nM.
On the same count and under the same terms, as for `CCNC(=O)c1ccc(C(=C2CC3CCC(C2)N3Cc2nccs2)c2cc(N)cc(C(=O)O)c2)cc1` [Cpd 118], the figure is 10000 nM; as for `CCNC(=O)c1ccc(C(=C2CC3CCC(C2)N3Cc2cccs2)c2cc(N)cc(C(=O)O)c2)cc1` [Cpd 120], 5360 nM.
`CCNC(=O)c1ccc(C(=C2CC3CCC(C2)N3Cc2ccco2)c2ccc(CC(N)C(=O)O)cc2)cc1` (stereo not shown) [Cpd 124] showed a Ki of 94.6 nM.
